Results on 2 sequences are retold here after patent US9480727B2, “Synthetic peptide for inhibiting expression of type 2 TNF receptor and use thereof” (TOAGOSEI CO., LTD., priority 2012, dated 2016).

For assay [1], the system named is TNF-R1. The assay can be described thus: TNF-R1 expression (immunofluorescence, flow cytometry) in mouse Neuro 2a cells. It is filed as cell-based. The settings on record: Neuro 2a cells after retinoic acid induction, 5 μM peptide, two days; fluorescence intensity relative to control = 1 (FIG. 1). The protocol: The activities of the two peptides synthesized in Example 1 above were tested with cultured cells of a mouse spinal cord, neuroblastoma cell line (Neuro 2a). The control group was supplied with no peptides. The test details are described below.
The Neuro 2a cell line was seeded in a culture dish of 6 cm diameter at a density of 8.5×10^4 cells/mL and incubated overnight in a general DMEM culture medium (with 10% FBS, 1% penicillin) at 37° C. in a CO2 incubator at 5% CO2.
After incubated overnight, the culture medium was replaced with a DMEM culture medium containing 2% FBS, 20 μM retinoic acid and 1% penicillin. […]
After completion of the incubation, cultured cells in each test group were collected and divided into certain test tubes in fractions having the same number of cells. By the immunofluorescence technique described below, the expression (presence) of TNF-R1 and TNF-R2 was then assessed in each test group (group supplied with no peptide, group supplied with Sample 1, group supplied with Sample 2). […]
(§1) The fluorescence intensities of cells were measured with a flow cytometer (a Millipore system product, Guava® easyCyte 8HT). For both TNF-R2 and TNF-R1, the fluorescence intensities are shown as relative values with the fluorescence intensities of TNF-R2 and TNF-R1 in the control group (group supplied with no peptide) being 1, respectively.
For orientation: A flow cytometer gives signals particle by particle.

Assay [2] relates to TNF-R1. As to the kind of experiment: TNF-R1 expression (immunofluorescence, flow cytometry) in human SK-N-SH cells. The settings on record: SK-N-SH cells after retinoic acid induction, 5 μM peptide, two days; fluorescence intensity relative to control = 1 (FIG. 2). It counts as cell-based. The protocol: The activities of the two peptides synthesized in Example 1 above were tested with cultured cells of a human neuroblastoma cell line (SK-N-SH). The control group was supplied with no peptides. The test details are described below.
The SK-N-SH cell line was seeded in a 4 mL fraction in a culture dish of 6 cm diameter at a density of 1.5×10^5 cells/mL and incubated in a general DMEM culture medium (with 10% FBS, 2 mM L-glutamine, 50 unit/mL penicillin, and 50 μg/mL streptomycin) at 37° C. in a CO2 incubator at 5% CO2 over two nights. […]
After completion of the incubation, cultured cells in each test group were collected and divided into certain test tubes in fractions having the same number of number of cells. By the immunofluorescence technique described below, the expression (presence) of TNF-R1 and TNF-R2 was then assessed in each test group (group supplied with no peptide, group supplied with Sample 1, group supplied with Sample 2). […]
as §1

In the case of “MLPSLALLLLAAWTVRA (listed as Mus musculus) [Sample 2]”, the “presence (expression) of TNF-R1 as compared with the control group” value in the assay with TNF-R1 [1] and with TNF-R1 [2] was “no significant change” in each case.

As for “MLPGLALLLLAAWTARA (listed as Homo sapiens) [Sample 1]”, the “presence (expression) of TNF-R1 as compared with the control group” value in the assay with TNF-R1 [1] and in the assay on TNF-R1 [2] was “no significant change” each time.
